Measured values taken from article PMC6915728 (Nature Communications, 2019).
Where two headings read alike, the source gives them in different places.

Tests used:
[1] = system: E. coli; conditions: previous laboratory evolution experiment; cited from earlier work
Excerpt: The results presented in this study may have important implications for the development of AMP-based therapies. Previous works reported several instances of cross-resistance interactions between membrane-targeting peptides (Supplementary Data 1), however, the potential for cross-resistance across AMPs with different modes of action has remained poorly understood. Specifically, while cross-resistance between host and therapeutic AMPs is certainly a realistic danger, not all AMPs are equally prone to cross-resistance. Given the immense diversity of AMPs with major differences in physicochemical ...

[2] = system: E. coli BW25113 overexpression strains (ASKA plasmids); experiment: Minimum inhibitory concentration (MIC), serial broth dilution, single-gene overexpression strains vs empty-vector control; format: cell-based, Escherichia coli; conditions: broth dilution, MS medium, 100 µM IPTG, 30 °C, 20-24 h, OD600, 3 replicates
Method in brief: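 E. coli overexpression strains grown in MS medium with chloramphenicol, induced with 100 µM IPTG for 1 h at 30 °C, then about half-million cells inoculated into 12-step AMP dilutions (typically 1.2-fold steps). OD600 read after 20–24 h at 30 °C with shaking; triplicate strains compared with empty-vector control.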

[3] = system: AMP-evolved E. coli lines; conditions: ref Spohn et al 2019, cited from earlier work
Excerpt: Supplement 41467_2019_13618_MOESM13_ESM.xlsx, sheet "Figure 6 and S15" | column: A comprehensive dataset of antimicrobial susceptibility of AMP-adapted lines to antimicrobial peptides (AMPs).

[4] = system: bacterial membrane; conditions: literature mining; ref superscript numbers in the cell, listed in Supplementary Data 7 sheet References; cited from earlier work
Excerpt: Supplement 41467_2019_13618_MOESM10_ESM.xlsx, sheet "AMP details" | column: Pore formation

FLGKVFKLASKVFKAVFGKV [R8, synthetic AMP (from linguistic model); cluster C1]
Emergence of resistant lines in laboratory evolution [1]: did not result in any significant resistant lines
Relative MIC ([2]; overexpression strain mlaD, MIC of the overexpression strain / MIC of the control strain (wild-type carrying the empty plasmid)): 1
Relative MIC ([2]; overexpression strain mzrA, MIC of overexpression strain / MIC of empty-plasmid control): 1.3
Relative MIC ([2]; overexpression strain yhbJ, MIC of overexpression strain / MIC of empty-plasmid control): 1
Relative change in MIC (MIC of the AMP-adpated line / MIC of the ancestral strain) ([3]; AMP-adapted line BAC5_3): 1
Relative change in MIC (MIC of the AMP-adpated line / MIC of the ancestral strain) ([3]; AMP-adapted line BAC5_5): 1
Relative change in MIC (MIC of the AMP-adpated line / MIC of the ancestral strain) ([3]; AMP-adapted line BAC5_7): 1.1
Relative change in MIC (MIC of the AMP-adpated line / MIC of the ancestral strain) ([3]; AMP-adapted line BAC5_10): 1.1
Relative change in MIC (MIC of the AMP-adpated line / MIC of the ancestral strain) ([3]; AMP-adapted line CAP18_2): 1.2
Relative change in MIC (MIC of the AMP-adpated line / MIC of the ancestral strain) ([3]; AMP-adapted line CAP18_5): 1.1
Relative change in MIC (MIC of the AMP-adpated line / MIC of the ancestral strain) ([3]; AMP-adapted line CAP18_6): 1
Relative change in MIC (MIC of the AMP-adpated line / MIC of the ancestral strain) ([3]; AMP-adapted line CAP18_8): 1.1
Relative change in MIC (MIC of the AMP-adpated line / MIC of the ancestral strain) ([3]; AMP-adapted line CAP18_10): 1.2
Relative change in MIC (MIC of the AMP-adpated line / MIC of the ancestral strain) ([3]; AMP-adapted line HBD3_3): 1
Relative change in MIC (MIC of the AMP-adpated line / MIC of the ancestral strain) ([3]; AMP-adapted line HBD3_6): 1.2
Relative change in MIC (MIC of the AMP-adpated line / MIC of the ancestral strain) ([3]; AMP-adapted line HBD3_8): 1
Relative change in MIC (MIC of the AMP-adpated line / MIC of the ancestral strain) ([3]; AMP-adapted line HBD3_10): 1
Relative change in MIC (MIC of the AMP-adpated line / MIC of the ancestral strain) ([3]; AMP-adapted line LL37_1): 1.2
Relative change in MIC (MIC of the AMP-adpated line / MIC of the ancestral strain) ([3]; AMP-adapted line LL37_3): 1.2
Relative change in MIC (MIC of the AMP-adpated line / MIC of the ancestral strain) ([3]; AMP-adapted line LL37_6): 1
Relative change in MIC (MIC of the AMP-adpated line / MIC of the ancestral strain) ([3]; AMP-adapted line LL37_7): 1.1
Relative change in MIC (MIC of the AMP-adpated line / MIC of the ancestral strain) ([3]; AMP-adapted line LL37_10): 1.2
Relative change in MIC (MIC of the AMP-adpated line / MIC of the ancestral strain) ([3]; AMP-adapted line PEX_1): 1.1
Relative change in MIC (MIC of the AMP-adpated line / MIC of the ancestral strain) ([3]; AMP-adapted line PEX_4): 1.2
Relative change in MIC (MIC of the AMP-adpated line / MIC of the ancestral strain) ([3]; AMP-adapted line PEX_5): 1.1
Relative change in MIC (MIC of the AMP-adpated line / MIC of the ancestral strain) ([3]; AMP-adapted line PEX_6): 1
Relative change in MIC (MIC of the AMP-adpated line / MIC of the ancestral strain) ([3]; AMP-adapted line PEX_7): 1.2
Relative change in MIC (MIC of the AMP-adpated line / MIC of the ancestral strain) ([3]; AMP-adapted line PR39_1): 1.1
Relative change in MIC (MIC of the AMP-adpated line / MIC of the ancestral strain) ([3]; AMP-adapted line PR39_2): 1
Relative change in MIC (MIC of the AMP-adpated line / MIC of the ancestral strain) ([3]; AMP-adapted line PR39_5): 1
Relative change in MIC (MIC of the AMP-adpated line / MIC of the ancestral strain) ([3]; AMP-adapted line PR39_7): 1
Relative change in MIC (MIC of the AMP-adpated line / MIC of the ancestral strain) ([3]; AMP-adapted line PR39_10): 1
Relative change in MIC (MIC of the AMP-adpated line / MIC of the ancestral strain) ([3]; AMP-adapted line PROA_2): 1
Relative change in MIC (MIC of the AMP-adpated line / MIC of the ancestral strain) ([3]; AMP-adapted line PROA_3): 1
Relative change in MIC (MIC of the AMP-adpated line / MIC of the ancestral strain) ([3]; AMP-adapted line PROA_7): 1
Relative change in MIC (MIC of the AMP-adpated line / MIC of the ancestral strain) ([3]; AMP-adapted line PROA_8): 1
Relative change in MIC (MIC of the AMP-adpated line / MIC of the ancestral strain) ([3]; AMP-adapted line PROA_9): 1
Relative change in MIC (MIC of the AMP-adpated line / MIC of the ancestral strain) ([3]; AMP-adapted line PXB_2): 1
Relative change in MIC (MIC of the AMP-adpated line / MIC of the ancestral strain) ([3]; AMP-adapted line PXB_5): 1.7
Relative change in MIC (MIC of the AMP-adpated line / MIC of the ancestral strain) ([3]; AMP-adapted line PXB_6): 1.9
Relative change in MIC (MIC of the AMP-adpated line / MIC of the ancestral strain) ([3]; AMP-adapted line PXB_8): 1.9
Relative change in MIC (MIC of the AMP-adpated line / MIC of the ancestral strain) ([3]; AMP-adapted line PXB_10): 1.2

SWLSKTAKKLENSAKKRISEGIAIAIQGGPR [CP1, Cecropin P1, antimicrobial peptide, source Ascaris suum; disrupts cell membrane; cluster C1]
Emergence of resistant lines in laboratory evolution [1]: did not result in any significant resistant lines
Relative MIC ([2]; overexpression strain nikB, MIC of overexpression strain / MIC of empty-plasmid control): 0.8
Relative MIC ([2]; overexpression strain ptsN, MIC of overexpression strain / MIC of empty-plasmid control): 0.76
Relative MIC ([2]; overexpression strain yiaJ, MIC of overexpression strain / MIC of empty-plasmid control): 0.8
Relative change in MIC (MIC of the AMP-adpated line / MIC of the ancestral strain) ([3]; AMP-adapted line BAC5_3): 1.1
Relative change in MIC (MIC of the AMP-adpated line / MIC of the ancestral strain) ([3]; AMP-adapted line BAC5_5): 1.2
Relative change in MIC (MIC of the AMP-adpated line / MIC of the ancestral strain) ([3]; AMP-adapted line BAC5_7): 1
Relative change in MIC (MIC of the AMP-adpated line / MIC of the ancestral strain) ([3]; AMP-adapted line BAC5_10): 1
Relative change in MIC (MIC of the AMP-adpated line / MIC of the ancestral strain) ([3]; AMP-adapted line CAP18_2): 1
Relative change in MIC (MIC of the AMP-adpated line / MIC of the ancestral strain) ([3]; AMP-adapted line CAP18_5): 1.2
Relative change in MIC (MIC of the AMP-adpated line / MIC of the ancestral strain) ([3]; AMP-adapted line CAP18_6): 1
Relative change in MIC (MIC of the AMP-adpated line / MIC of the ancestral strain) ([3]; AMP-adapted line CAP18_8): 1
Relative change in MIC (MIC of the AMP-adpated line / MIC of the ancestral strain) ([3]; AMP-adapted line CAP18_10): 1
Relative change in MIC (MIC of the AMP-adpated line / MIC of the ancestral strain) ([3]; AMP-adapted line HBD3_3): 1.1
Relative change in MIC (MIC of the AMP-adpated line / MIC of the ancestral strain) ([3]; AMP-adapted line HBD3_6): 1.1
Relative change in MIC (MIC of the AMP-adpated line / MIC of the ancestral strain) ([3]; AMP-adapted line HBD3_8): 1.2
Relative change in MIC (MIC of the AMP-adpated line / MIC of the ancestral strain) ([3]; AMP-adapted line HBD3_10): 1.2
Relative change in MIC (MIC of the AMP-adpated line / MIC of the ancestral strain) ([3]; AMP-adapted line LL37_1): 0.8
Relative change in MIC (MIC of the AMP-adpated line / MIC of the ancestral strain) ([3]; AMP-adapted line LL37_3): 1
Relative change in MIC (MIC of the AMP-adpated line / MIC of the ancestral strain) ([3]; AMP-adapted line LL37_6): 0.9
Relative change in MIC (MIC of the AMP-adpated line / MIC of the ancestral strain) ([3]; AMP-adapted line LL37_7): 1.1
Relative change in MIC (MIC of the AMP-adpated line / MIC of the ancestral strain) ([3]; AMP-adapted line LL37_10): 0.9
Relative change in MIC (MIC of the AMP-adpated line / MIC of the ancestral strain) ([3]; AMP-adapted line PEX_1): 1.1
Relative change in MIC (MIC of the AMP-adpated line / MIC of the ancestral strain) ([3]; AMP-adapted line PEX_4): 1.2
Relative change in MIC (MIC of the AMP-adpated line / MIC of the ancestral strain) ([3]; AMP-adapted line PEX_5): 1.1
Relative change in MIC (MIC of the AMP-adpated line / MIC of the ancestral strain) ([3]; AMP-adapted line PEX_6): 1
Relative change in MIC (MIC of the AMP-adpated line / MIC of the ancestral strain) ([3]; AMP-adapted line PEX_7): 1.3
Relative change in MIC (MIC of the AMP-adpated line / MIC of the ancestral strain) ([3]; AMP-adapted line PR39_1): 1.1
Relative change in MIC (MIC of the AMP-adpated line / MIC of the ancestral strain) ([3]; AMP-adapted line PR39_2): 1.1
Relative change in MIC (MIC of the AMP-adpated line / MIC of the ancestral strain) ([3]; AMP-adapted line PR39_5): 1
Relative change in MIC (MIC of the AMP-adpated line / MIC of the ancestral strain) ([3]; AMP-adapted line PR39_7): 1
Relative change in MIC (MIC of the AMP-adpated line / MIC of the ancestral strain) ([3]; AMP-adapted line PR39_10): 0.8
Relative change in MIC (MIC of the AMP-adpated line / MIC of the ancestral strain) ([3]; AMP-adapted line PROA_2): 1.1
Relative change in MIC (MIC of the AMP-adpated line / MIC of the ancestral strain) ([3]; AMP-adapted line PROA_3): 0.9
Relative change in MIC (MIC of the AMP-adpated line / MIC of the ancestral strain) ([3]; AMP-adapted line PROA_7): 0.8
Relative change in MIC (MIC of the AMP-adpated line / MIC of the ancestral strain) ([3]; AMP-adapted line PROA_8): 0.9
Relative change in MIC (MIC of the AMP-adpated line / MIC of the ancestral strain) ([3]; AMP-adapted line PROA_9): 1.1
Relative change in MIC (MIC of the AMP-adpated line / MIC of the ancestral strain) ([3]; AMP-adapted line PXB_2): 1.3
Relative change in MIC (MIC of the AMP-adpated line / MIC of the ancestral strain) ([3]; AMP-adapted line PXB_5): 1
Relative change in MIC (MIC of the AMP-adpated line / MIC of the ancestral strain) ([3]; AMP-adapted line PXB_6): 1.2
Relative change in MIC (MIC of the AMP-adpated line / MIC of the ancestral strain) ([3]; AMP-adapted line PXB_8): 1.1
Relative change in MIC (MIC of the AMP-adpated line / MIC of the ancestral strain) ([3]; AMP-adapted line PXB_10): 1.2
Pore formation (whether AMP makes pores in the bacterial membrane) [4]: Yes6-8
